Data published in ChEMBL document CHEMBL1201862, “PubChem BioAssay data set” (2004).
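Each compound was tested at five concentrations against cells in 96-well plates for 48 hours. Here, GI50 denotes the concentration required for 50% inhibition of growth.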 Calls of active or inactive are those of the source. Cut-off read from the data, not from the text of the source: active = GI50 up to about 1.1 µM and inactive = higher.

Assays:
Experiment in all cases: inhibition of tumour cell growth, NCI panel, 48 h
SF-539 = tested on: SF-539
RPMI-8226 = tested on: RPMI-8226
UACC-62 = tested on: UACC-62
LOX IMVI = tested on: LOX IMVI
HOP-18 = tested on: HOP-18
DMS-273 = tested on: DMS-273
HOP-62 = tested on: HOP-62
SF-268 = tested on: SF-268
HCC 2998 = tested on: HCC 2998
SK-MEL-2 = tested on: SK-MEL-2
SNB-19 = tested on: SNB-19
NCI-H23 = tested on: NCI-H23
HL-60 = tested on: HL-60
LXFL 529 = tested on: LXFL 529
RXF 631 = tested on: RXF 631
CCRF-CEM = tested on: CCRF-CEM
UO-31 = tested on: UO-31
OVCAR-5 = tested on: OVCAR-5
SN12C = tested on: SN12C
Malme-3M = tested on: Malme-3M
OVCAR-4 = tested on: OVCAR-4
EKVX = tested on: EKVX
SK-OV-3 = tested on: SK-OV-3
NCI-H226 = tested on: NCI-H226
MOLT-4 = tested on: MOLT-4
SW-620 = tested on: SW-620
HT-29 = tested on: HT-29
K562 = tested on: K562
786-0 = tested on: 786-0
CAKI-1 = tested on: CAKI-1
DMS-114 = tested on: DMS-114
ACHN = tested on: ACHN
OVCAR-8 = tested on: OVCAR-8
COLO 205 = tested on: COLO 205
A498 = tested on: A498
UACC-257 = tested on: UACC-257
IGROV-1 = tested on: IGROV-1
KM12 = tested on: KM12
HCT-116 = tested on: HCT-116
SK-MEL-5 = tested on: SK-MEL-5
XF498 = tested on: XF498
NCI-H460 = tested on: NCI-H460
M14 = tested on: M14
SNB-78 = tested on: SNB-78
DLD-1 = tested on: DLD-1
SNB-75 = tested on: SNB-75
SR = tested on: SR
HCT-15 = tested on: HCT-15
RXF 393 = tested on: RXF 393
SF-295 = tested on: SF-295
A549 = tested on: A549
OVCAR-3 = tested on: OVCAR-3
TK-10 = tested on: TK-10
U-251 = tested on: U-251
M19-MEL = tested on: M19-MEL
SK-MEL-28 = tested on: SK-MEL-28
HOP-92 = tested on: HOP-92

CCOC(=O)N1C2C=C(C)C(C3C(C)C(=O)N31)N(C(=O)c1ccccc1)O2 (configuration not stated)
GI50 (SF-539): > 100 µM (inactive)
GI50 (RPMI-8226): > 100 µM (inactive)
GI50 (UACC-62): > 100 µM (inactive)
GI50 (LOX IMVI): > 100 µM (inactive)
GI50 (HOP-18): > 100 µM (inactive)
GI50 (DMS-273): > 100 µM (inactive)
GI50 (HOP-62): > 100 µM (inactive)
GI50 (SF-268): > 100 µM (inactive)
GI50 (HCC 2998): > 100 µM (inactive)
GI50 (SK-MEL-2): > 100 µM (inactive)
GI50 (SNB-19): > 100 µM (inactive)
GI50 (NCI-H23): > 100 µM (inactive)
GI50 (HL-60): > 100 µM (inactive)
GI50 (LXFL 529): > 100 µM (inactive)
GI50 (RXF 631): > 100 µM (inactive)
GI50 (CCRF-CEM): > 100 µM (inactive)
GI50 (UO-31): > 100 µM (inactive)
GI50 (OVCAR-5): > 100 µM (inactive)
GI50 (SN12C): > 100 µM (inactive)
GI50 (Malme-3M): > 100 µM (inactive)
GI50 (OVCAR-4): > 100 µM (inactive)
GI50 (EKVX): > 100 µM (inactive)
GI50 (SK-OV-3): > 100 µM (inactive)
GI50 (NCI-H226): > 100 µM (inactive)
GI50 (MOLT-4): > 100 µM (inactive)
GI50 (SW-620): > 100 µM (inactive)
GI50 (HT-29): > 100 µM (inactive)
GI50 (K562): > 100 µM (inactive)
GI50 (786-0): > 100 µM (inactive)
GI50 (CAKI-1): > 100 µM (inactive)
GI50 (DMS-114): > 100 µM (inactive)
GI50 (ACHN): > 100 µM (inactive)
GI50 (OVCAR-8): > 100 µM (inactive)
GI50 (COLO 205): > 100 µM (inactive)
GI50 (A498): > 100 µM (inactive)
GI50 (UACC-257): > 100 µM (inactive)
GI50 (IGROV-1): > 100 µM (inactive)
GI50 (KM12): > 100 µM (inactive)
GI50 (HCT-116): > 100 µM (inactive)
GI50 (SK-MEL-5): > 100 µM (inactive)
GI50 (XF498): > 100 µM (inactive)
GI50 (NCI-H460): > 100 µM (inactive)
GI50 (M14): > 100 µM (inactive)
GI50 (SNB-78): > 100 µM (inactive)
GI50 (DLD-1): > 100 µM (inactive)
GI50 (SNB-75): > 100 µM (inactive)
GI50 (SR): > 100 µM (inactive)
GI50 (HCT-15): > 100 µM
GI50 (RXF 393): > 100 µM (inactive)
GI50 (SF-295): > 100 µM (inactive)
GI50 (A549): > 100 µM (inactive)
GI50 (OVCAR-3): > 100 µM (inactive)
GI50 (TK-10): > 100 µM (inactive)
GI50 (U-251): > 100 µM (inactive)
GI50 (M19-MEL): > 100 µM (inactive)
GI50 (SK-MEL-28): > 100 µM (inactive)
GI50 (HOP-92): > 100 µM (inactive)
